We go through 21 molecules from patent US20240300980A1, “HETEROCYCLIC COMPOUNDS AS KRAS INHIBITOR, AND PREPARATION THEREFOR AND USE THEREOF IN TREATMENT” (SHANGHAI KECHOW PHARMA, INC., priority 2021, published 2024).

In general, IC50 refers to the point on the concentration scale where inhibition reaches its midpoint.

One experiment concerns AGS cells (KRAS^G12D). Description: Detection of cell proliferation in vitro by MTT/MTS method (cell activity experiment). The conditions noted are these: AGS cells; MTT/MTS; 3 days of drug treatment; read-out: AGS IC50. Type of experiment: cell-based. The procedure, abridged: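 KRAS G12D AGS cells seeded at 1000 per well, compound added 24 h later, 0.5% final DMSO. Viability read after 3 days of treatment by MTT (solubilised in DMSO) or MTS, 4 h, absorbance 490 nm. IC50 from dose–response curves versus DMSO control.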
(In general: Tetrazolium assays rely on reduction of a dye to a coloured formazan, in cell work by metabolically active cells.)
`C#Cc1c(F)ccc2cc(O)cc(-c3ccc4c(N5C[C@H]6CC[C@@H](C5)[C@@H]6N)nc(OC[C@@]56CCCN5C[C@H](F)C6)nc4c3F)c12` [Example 128, 4-(4-((1R,5S,8R)-8-amino-3-azabicyclo [3.2.1]octan-3-yl)-8-fluoro-2-(((2R,7aS)-2-fluorotetrahydro-1H-pyrrolizin-7a(5H)-yl)methoxy)quinazolin-7-yl)-5-ethynyl-6-fluoronaphthalen-2-ol]: the IC50 is above 2500 nM. As to `Oc1cc(-c2ccc3c(N4C[C@H]5CC[C@@H](C4)[C@@H]5F)nc(OC[C@@]45CCCN4C[C@H](F)C5)nc3c2F)c2c(F)c(F)ccc2c1` [Example 126, 5,6-difluoro-4-(8-fluoro-4-((1R,5S,8R)-8-fluoro-3-azabicyclo [3.2.1]octan-3-yl)-2-(((2R,7aS)-2-fluorotetrahydro-1H-pyrrolizin-7a(5H)-yl)methoxy)quinazolin-7-yl)naphthalen-2-ol], the IC50 is above 2500 nM.

Staying with this experiment, now noted: Homo sapiens, AGS, 72 h, AGS cells; MTT/MTS; 3 days of drug treatment; read-out: AGS IC50.
For the molecule `CC1OCCc2cc(O)cc(-c3ncc4c(N5C[C@H]6CC[C@@H](C5)N6)nc(OC[C@@]56CCCN5C[C@H](F)C6)nc4c3F)c21` (stereo partly drawn) [Example 356, 8-(4-((1R,5S)-3,8-diazabicyclo[3.2.1]octan-3-yl)-8-fluoro-2-(((2R,7aS)-2-fluorotetrahydro-1H-pyrrolizin-7a(5H)-yl)methoxy)pyrido[4,3-d]pyrimidin-7-yl)-1-methylisochroman-6-ol], the half-maximal inhibitory concentration (IC50) worked out at 21 nM.

Turning to `Oc1cc(-c2ncc3c(N4C[C@H]5CC[C@@H](C4)S5)nc(OC[C@@]45CCCN4C[C@H](F)C5)nc3c2F)c2c(F)cccc2c1` [Example 26, 4-(4-((1R,5S)-8-thia-3-azabicyclo[3.2.1]octan-3-yl)-8-fluoro-2-(((2R, 7aS)-2-fluorotetrahydro-1H-pyrrolizin-7a(5H)-yl)methoxy)pyrido[4,3-d]pyrimidin-7-yl)-5-fluoronaphthalen-2-ol], the concentration for half-maximal inhibition (IC50) was found to be 300 nM. Consider `CCc1c(F)ccc2cc(O)cc(-c3ncc4c(N5C[C@H]6CC[C@@H](C5)N6)c(C(F)(F)F)c(OC[C@@]56CCCN5C[C@H](F)C6)nc4c3F)c12` [Example 197, 4-(4-((1R,5S)-3,8-diazabicyclo[3.2.1]octan-3-yl)-8-fluoro-2-(((2R,7aS)-2-fluorotetrahydro-1H-pyrrolizin-7a(5H)-yl)methoxy)-3-(trifluoromethyl)-1,6-naphthyridin-7-yl)-5-ethyl-6-fluoronaphthalen-2-ol], for which the half-maximal inhibitory concentration (IC50) was above 2500 nM. Take `Oc1cc2c(c(-c3ncc4c(N5C[C@H]6CC[C@@H](C5)N6)nc(OC[C@@]56CCCN5C[C@H](F)C6)nc4c3F)c1)CCCC2` [Example 271, 4-(4-((1R,5S)-3,8-diazabicyclo[3.2.1]octan-3-yl)-8-fluoro-2-(((2R,7aS)-2-fluorotetrahydro-1H-pyrrolizin-7a(5H)-yl)methoxy)pyrido[4,3-d]pyrimidin-7-yl)-5,6,7,8-tetrahydronaphthalen-2-ol]: the concentration for half-maximal inhibition (IC50) stood at 11 nM.

Take `C#Cc1cccc2cc(O)cc(-c3ncc4c(N5C[C@H]6CC[C@@H](C5)S6)nc(OC[C@@]56CCCN5C[C@H](F)C6)nc4c3F)c12` [Example 20, 4-(4-((1R,5S)-8-thia-3-azabicyclo [3.2.1]octan-3-yl)-8-fluoro-2-(((2R, 7aS)-2-fluorotetrahydro-1H-pyrrolizin-7a(5H)-yl)methoxy)pyrido [4,3-d]pyrimidin-7-yl)-5-ethynylnaphthalen-2-ol]: the half-inhibitory concentration (IC50) is 271 nM. Still for that read-out and setting: with `CCc1c(F)ccc2cc(O)cc(-c3ccc4c(N5C[C@H]6CC[C@@H](C5)N6)nc(OC[C@@]56CCCN5C[C@H](F)C6)nc4c3)c12` [Example 149, 4-(4-((1R,5S)-3,8-diazabicyclo[3.2.1]octan-3-yl)-2-(((2R, 7aS)-2-fluorotetrahydro-1H-pyrrolizin-7a(5H)-yl)methoxy)quinazolin-7-yl)-5-ethyl-6-fluoronaphthalen-2-ol] the figure was 320 nM; with `C#Cc1c(F)ccc2cc(O)cc(-c3c(Cl)cc4c(N5C[C@H]6CC[C@@H](C5)N6)nc(OC[C@@]56CCCN5C[C@H](F)C6)nc4c3OC3CC3)c12` [Example 330, 4-(4-((1R,5S)-3,8-diazabicyclo[3.2.1]octan-3-yl)-6-chloro-8-cyclopropoxy-2-(((2R,7aS)-2-fluorotetrahydro-1H-pyrrolizin-7a(5H)-yl)methoxy)quinazolin-7-yl)-5-ethynyl-6-fluoronaphthalen-2-ol], 195 nM; with `Oc1cc(Cl)c(C2CC2)c(-c2ncc3c(N4C[C@H]5CC[C@@H](C4)N5)nc(OCC4(CN5CCCC5)CC4)nc3c2F)c1` [Example 10, 3-(4-((1R,5S)-3,8-diazabicyclo[3.2.1]octan-3-yl)-8-fluoro-2-((1-(pyrrolidin-1-ylmethyl)cyclopropyl)methoxy)pyrido[4,3-d]pyrimidin-7-yl)-5-chloro-4-cyclopropylphenol], 17 nM. Regarding `CCc1c(F)ccc2cc(O)cc(-c3ncc4c(N5C[C@H]6CC[C@@H](C5)S6)nc(OC[C@@]56CCCN5C[C@H](F)C6)nc4c3F)c12` [Example 24, 4-(4-((1R,5S)-8-thia-3-azabicyclo[3.2.1]octan-3-yl)-8-fluoro-2-(((2R, 7aS)-2-fluorotetrahydro-1H-pyrrolizin-7a(5H)-yl)methoxy)pyrido[4,3-d]pyrimidin-7-yl)-5-ethyl-6-fluoronaphthalen-2-ol], the IC50 was 280 nM. As to `Oc1cc2c(c(-c3ncc4c(N5C[C@H]6CC[C@@H](C5)N6)nc(OC[C@@]56CCCN5C[C@H](F)C6)nc4c3F)c1)C(C(F)(F)F)CCC2` (stereo partly drawn) [Example 260, 4-(4-((1R,5S)-3,8-diazabicyclo[3.2.1]octan-3-yl)-8-fluoro-2-(((2R,7aS)-2-fluorotetrahydro-1H-pyrrolizin-7a(5H)-yl)methoxy)pyrido[4,3-d]pyrimidin-7-yl)-5-(trifluoromethyl)-5,6,7,8-tetrahydronaphthalen-2-ol], the IC50 was 417 nM.

For the molecule `Oc1cc(-c2ncc3c(N4C[C@H]5CC[C@@H](C4)O5)nc(OC[C@@]45CCCN4C[C@H](F)C5)nc3c2F)c2c(F)c(F)ccc2c1` [Example 16, 4-(4-((1R,5S)-8-oxa-3-azabicyclo[3.2.1]octan-3-yl)-8-fluoro-2-(((2R,7aS)-2-fluorotetrahydro-1H-pyrrolizin-7a(5H)-yl)methoxy)pyrido[4,3-d]pyrimidin-7-yl)-5,6-difluoronaphthalen-2-ol], the 50% inhibitory concentration (IC50) was found to be 315 nM. Turning to `Oc1cc2c(c(-c3ncc4c(N5C[C@H]6CC[C@@H](C5)N6)nc(OC[C@@]56CCCN5C[C@H](F)C6)nc4c3F)c1)C(CCF)CC2` (stereo partly drawn) [Example 259, 7-(4-((1R,5S)-3,8-diazabicyclo[3.2.1]octan-3-yl)-8-fluoro-2-(((2R,7aS)-2-fluorotetrahydro-1H-pyrrolizin-7a(5H)-yl)methoxy)pyrido[4,3-d]pyrimidin-7-yl)-1-(2-fluoroethyl)-2,3-dihydro-1H-inden-5-ol], the IC50 stood at 2630 nM. As to `CCC1CCc2cc(O)cc(-c3ccc4c(NCC5(N(C)C)CCC5)nc(OC[C@@]56CCCN5C[C@H](F)C6)nc4c3F)c21` (stereo partly drawn) [Example 429, 7-(4-(((1-(dimethylamino)cyclobutyl)methyl)amino)-8-fluoro-2-(((2R,7aS)-2-fluorotetrahydro-1H-pyrrolizin-7a(5H)-yl)methoxy)quinazolin-7-yl)-1-ethyl-2,3-dihydro-1H-inden-5-ol], the IC50 was 75 nM.

As for `C#Cc1c(F)ccc2cc(O)cc(-c3ncc4c(N5CC6CCC(C5)C6N)nc(OC[C@@]56CCCN5C[C@H](F)C6)nc4c3F)c12` (stereo partly drawn) [Example 63, 4-(4-((1R,5S,8R)-8-amino-3-azabicyclo [3.2.1]octan-3-yl)-8-fluoro-2-(((2R,7aS)-2-fluorotetrahydro-1H-pyrrolizin-7a(5H)-yl)methoxy)pyrido[4,3-d]pyrimidin-7-yl)-5-ethynyl-6-fluoronaphthalen-2-ol], the IC50 was found to be 1580 nM. Turning to `Oc1cc2c(c(C3=C(F)c4nc(OC[C@@]56CCCN5C[C@H](F)C6)nc(N5C[C@H]6CC[C@@H](C5)N6)c4C4=NCCN43)c1)CCCC2` [Example 406, 4-(10-((1R,5S)-3,8-diazabicyclo[3.2.1]octan-3-yl)-6-fluoro-8-(((2R,7aS)-2-fluorotetrahydro-1H-pyrrolizin-7a(5H)-yl)methoxy)-2,3-dihydroimidazo[1′,2′:1,2]pyrido[4,3-d]pyrimidin-5-yl)-5,6,7,8-tetrahydronaphthalen-2-ol], the concentration for half-maximal inhibition (IC50) was 120 nM. Same read-out and setting: with `Oc1cc(N2CCc3c(nc(OC[C@@]45CCCN4C[C@H](F)C5)nc3N3C[C@H]4CC[C@@H](C3)N4)C2)c2c(F)c(F)ccc2c1` [Example 204, 4-(4-((1R,5S)-3,8-diazabicyclo[3.2.1]octan-3-yl)-2-(((2R,7aS)-2-fluorotetrahydro-1H-pyrrolizin-7a(5H)-yl)methoxy)-5,8-dihydropyrido[3,4-d]pyrimidin-7(6H)-yl)-5,6-difluoronaphthalen-2-ol] the figure was 11 nM.

`Oc1cc(-c2ccc3c(N4C[C@H]5CC[C@@H](C4)N5)nc(OC[C@@]45CCCN4C[C@H](F)C5)nc3c2F)c2c(c1)C1CC1C2` (stereo partly drawn) [Example 294, 5-(4-((1R,5S)-3,8-diazabicyclo[3.2.1]octan-3-yl)-8-fluoro-2-(((2R,7aS)-2-fluorotetrahydro-1H-pyrrolizin-7a(5H)-yl)methoxy)quinazolin-7-yl)-1,1a,6,6a-tetrahydrocyclopropa[a]inden-3-ol]: the 50% inhibitory concentration (IC50) turned out to be 65 nM.

With `C#Cc1c(F)ccc2cc(O)cc(-c3ccc4c(N5CC(C)(NC)C5)nc(OC[C@@]56CCCN5C[C@H](F)C6)nc4c3F)c12` [Example 218, 5-ethynyl-6-fluoro-4-(8-fluoro-2-(((2R,7aS)-2-fluorotetrahydro-1H-pyrrolizin-7a(5H)-yl)methoxy)-4-(3-methyl-3-(methylamino)azetidin-1-yl)quinazolin-7-yl)naphthalen-2-ol], the half-inhibitory concentration (IC50) stood at 980 nM. Regarding `C#Cc1cccc2cc(O)cc(-c3ncc4c(N5C[C@H]6CC[C@@H](C5)N6)c(C#N)c(OC[C@@]56CCCN5C[C@H](F)C6)nc4c3F)c12` [Example 189, 4-((1R,5S)-3,8-diazabicyclo[3.2.1]octan-3-yl)-7-(8-ethynyl-3-hydroxynaphthalen-1-yl)-8-fluoro-2-(((2R,7aS)-2-fluorotetrahydro-1H-pyrrolizin-7a(5H)-yl)methoxy)-1,6-naphthyridine-3-carbonitrile], the IC50 is 152 nM.
